This note sets out measurements from patent US8163740B2, “6-substituted benzoxazines” (Hoffmann-La Roche Inc., priority 2008, dated 2012).

Chain of recombinant human 5-HT5A receptor (P47898 whole entry): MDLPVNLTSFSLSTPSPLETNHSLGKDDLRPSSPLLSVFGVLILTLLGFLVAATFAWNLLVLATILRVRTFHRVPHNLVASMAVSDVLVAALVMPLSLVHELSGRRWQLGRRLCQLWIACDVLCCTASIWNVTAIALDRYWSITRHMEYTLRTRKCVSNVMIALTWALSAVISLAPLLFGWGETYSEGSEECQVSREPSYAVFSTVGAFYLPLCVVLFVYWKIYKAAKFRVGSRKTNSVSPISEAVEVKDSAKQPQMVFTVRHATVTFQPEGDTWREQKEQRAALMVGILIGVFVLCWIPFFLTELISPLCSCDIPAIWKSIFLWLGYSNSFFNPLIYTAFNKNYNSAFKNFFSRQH

The target in the test is recombinant human 5-HT5A receptor (Homo sapiens, UniProt P47898). The test is described as follows: [3H]LSD radioligand binding assay. The conditions noted are these: [3H]LSD (approximately 1 nM); membranes from HEK-EBNA cells transiently expressing 5-HT5A; Ki by Cheng-Prussoff equation; read-out: Ki. In a few lines:
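Membranes from HEK-EBNA cells transiently expressing the receptor, with ~1 nM [3H]LSD in 50 mM Tris, 1 mM EGTA, 10 mM MgCl2, 10 μM pargyline, pH 7.4, SPA bead format. Incubated 120 min RT; nonspecific binding defined with 2 μM methiothepin. 10 concentrations in duplicate; IC50 converted to Ki via Cheng-Prusoff.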
In the case of `CN1CCN(CC(=O)Nc2ccc3c(c2)COC(NC2CCCCCC2)=N3)CC1` [Example 93, N-(2-Cycloheptylamino-4H-benzo[d][1,3]oxazin-6-yl)-2-(4-methyl-piperazin-1-yl)-acetamide], the Ki (usually a measure of affinity in units of concentration, obtained from inhibition or displacement) amounted to 10.8 nM. For `c1ccc(CNc2ccc3c(c2)COC(NC2CCCCCC2)=N3)cc1` [Example 94, N^6-Benzyl-N^2-cycloheptyl-4H-benzo[d][1,3]oxazine-2,6-diamine], the Ki stood at 63.5 nM. On to `O=C(Nc1ccc2c(c1)COC(NC1CCCCCC1)=N2)C1CC1` [Example 95, Cyclopropanecarboxylic acid (2-cycloheptylamino-4H-benzo[d][1,3]oxazin-6-yl)-amide], for which the Ki was 5.53 nM. The value for `O=C(Nc1ccc2c(c1)COC(NCCOc1ccccc1)=N2)C1CC1` [Example 96, Cyclopropanecarboxylic acid [2-(2-phenoxy-ethylamino)-4H-benzo[d][1,3]oxazin-6-yl]-amide] was 3.3 nM; that for `O=S(=O)(Nc1ccc2c(c1)COC(NC1CCCCCC1)=N2)C1CC1` [Example 97, Cyclopropanesulfonic acid (2-cycloheptylamino-4H-benzo[d][1,3]oxazin-6-yl)-amide] was 38.6 nM; that for `c1csc(CNc2ccc3c(c2)COC(NC2CCCCCC2)=N3)n1` [Example 98, N^2-Cycloheptyl-N^6-thiazol-2-ylmethyl-4H-benzo[d][1,3]oxazine-2,6-diamine] was 19.3 nM. As to `CN(C)S(=O)(=O)Nc1ccc2c(c1)COC(NC1CCCCCC1)=N2` [Example 99, N,N-(Dimethyl)-N′-{2-cycloheptylamino-4H-benzo[d][1,3]oxazin-6-yl-}-sulfamide], the Ki stood at 47.6 nM. The value for `O=S(=O)(Nc1ccc2c(c1)COC(NC1CCCCCC1)=N2)c1ccccc1` [Example 100, N-(2-Cycloheptylamino-4H-benzo[d][1,3]oxazin-6-yl)-benzenesulfonamide] was 74.7 nM; that for `c1c[nH]c(CNc2ccc3c(c2)COC(NC2CCCCCC2)=N3)n1` [Example 105, N^2-Cycloheptyl-N^6-(1H-imidazol-2-ylmethyl)-4H-benzo[d][1,3]oxazine-2,6-diamine] was 31.6 nM.

In the case of `O=S(=O)(Nc1ccc2c(c1)COC(NCCOc1ccccc1)=N2)C1CC1` [Example 108, Cyclopropanesulfonic acid [2-(2-phenoxy-ethylamino)-4H-benzo[d][1,3]oxazin-6-yl]-amide], the Ki is 29.1 nM.

Regarding `O=S(=O)(Nc1ccc2c(c1)COC(NCCOc1ccccc1)=N2)c1ccccc1` [Example 109, N-[2-(2-Phenoxy-ethylamino)-4H-benzo[d][1,3]oxazin-6-yl]-benzenesulfonamide], the Ki came out at 32.3 nM.

As to `CN(C)S(=O)(=O)Nc1ccc2c(c1)COC(NCCOc1ccccc1)=N2` [Example 110, N,N-(Dimethyl)-N′-{2-(2-Phenoxy-ethylamino)-4H-benzo[d][1,3]oxazin-6-yl}-sulfamide], the Ki is 24.1 nM. For the compound `COc1cccc2c1C(NC1=Nc3ccc(NC(=O)CN4CCN(C)C(CO)C4)cc3CO1)CC2` (stereo not drawn) [Example 116, 2-(3-Hydroxymethyl-4-methyl-piperazin-1-yl)-N-[2-(7-methoxy-indan-1-ylamino)-4H-benzo[d][1,3]oxazin-6-yl]-acetamide], the Ki is 2.89 nM.

In the case of `N#Cc1ccc2c(c1)COC(N[C@@H]1CCc3ccccc31)=N2` [Example 117, 2-((R)-Indan-1-ylamino)-4H-benzo[d][1,3]oxazine-6-carbonitrile], the inhibition constant (Ki) is 15.7 nM. Next, `Nc1ccc2c(c1)COC(Nc1cccc(C3CC3)c1)=N2` [Example 119, N^2-(3-Cyclopropyl-phenyl)-4H-benzo[d][1,3]oxazine-2,6-diamine]: 37.8 nM; `CN1CCN(CC(=O)Nc2ccc3c(c2)COC(NCCOc2ccccc2)=N3)CC1` [Example 122, 2-(4-Methyl-piperazin-1-yl)-N-[2-(2-phenoxy-ethylamino)-4H-benzo[d][1,3]oxazin-6-yl]-acetamide]: 5.11 nM. The value for `O=C(CN1CCOCC1)Nc1ccc2c(c1)COC(NCCOc1ccccc1)=N2` [Example 123, 2-Morpholin-4-yl-N-[2-(2-phenoxy-ethylamino)-4H-benzo[d][1,3]oxazin-6-yl]-acetamide] was 41.4 nM; that for `CC(C)N1CCC(NC(=O)Nc2ccc3c(c2)COC(NC2CCCCCC2)=N3)CC1` [Example 124, 1-(2-Cycloheptylamino-4H-benzo[d][1,3]oxazin-6-yl)-3-(1-isopropyl-piperidin-4-yl)-urea] was 3.32 nM. Next, `c1cc(NC2=Nc3ccc(NCc4ncc[nH]4)cc3CO2)cc(C2CC2)c1` [Example 125, N^2-(3-Cyclopropyl-phenyl)-N^6-(1H-imdazol-2-ylmethyl)-4H-benzo[d][1,3]oxazine-2,6-diamine]: 37.2 nM; `CN1CCN(CC(=O)Nc2ccc3c(c2)COC(Nc2cccc(C4CC4)c2)=N3)CC1` [Example 126, N-[2-(3-Cyclopropyl-phenylamino)-4H-benzo[d][1,3]oxazin-6-yl]-2-(4-methyl-piperazin-1-yl)-acetamide]: 37.7 nM; `c1cc(NC2=Nc3ccc(NCc4nccs4)cc3CO2)cc(C2CC2)c1` [Example 127, N^2-(3-Cyclopropyl-phenyl)-N^6-thiazol-2-ylmethyl-4H-benzo[d][1,3]oxazine-2,6-diamine]: 37.9 nM. As to `O=C(Nc1ccc2c(c1)COC(Nc1cccc(C3CC3)c1)=N2)C1CC1` [Example 128, Cyclopropanecarboxylic acid [2-(3-cyclopropyl-phenylamino)-4H-benzo[d][1,3]oxazin-6-yl]-amide], the Ki worked out at 23.5 nM. Turning to `NCc1ccc2c(c1)COC(N[C@@H]1CCc3ccccc31)=N2` [Example 129, (6-Aminomethyl-4H-benzo[d][1,3]oxazin-2-yl)-(R)-indan-1-yl-amine], the Ki was 13.3 nM. Next, `CC1(C)Cc2cccc(NC3=Nc4ccc(NCc5ncc[nH]5)cc4CO3)c2O1` [Example 131, N^2-(2,2-Dimethyl-2,3-dihydro-benzofuran-7-yl)-N^6-(1H-imidazol-2-ylmethyl)-4H-benzo[d][1,3]oxazine-2,6-diamine]: 17.9 nM. As to `O=C(NCc1ccc2c(c1)COC(N[C@@H]1CCc3ccccc31)=N2)c1ccc(F)cc1` [Example 132, 4-Fluoro-N-[2-((R)-indan-1-ylamino)-4H-benzo[d][1,3]oxazin-6-ylmethyl]-benzamide], the Ki was found to be 48 nM.

With `C=Cc1ccc2c(c1)COC(N[C@@H]1CCc3ccccc31)=N2` [Example 134, (R)-Indan-1-yl-(6-vinyl-4H-benzo[d][1,3]oxazin-2-yl)-amine], the Ki turned out to be 13.5 nM. With `CN(C)S(=O)(=O)Nc1ccc2c(c1)COC(Nc1cccc(C3CC3)c1)=N2` [Example 135, N′-{2-[(3-cyclopropylphenyl)amino]-4H-benzo[d][1,3]oxazin-6-yl}-N,N-dimethylsulfamide], the Ki was 71.7 nM.

With `c1ccc(CNc2ccc3c(c2)COC(Nc2cccc(C4CC4)c2)=N3)cc1` [Example 136, N^6-Benzyl-N^2-(3-cyclopropyl-phenyl)-4H-benzo[d][1,3]oxazine-2,6-diamine], the Ki is 61.3 nM.

As for `CC(C)N1CCC(NC(=O)Nc2ccc3c(c2)COC(Nc2cccc(C4CC4)c2)=N3)CC1` [Example 137, 1-[2-(3-Cyclopropyl-phenylamino)-4H-benzo[d][1,3]oxazin-6-yl]-3-(1-isopropyl-piperidin-4-yl)-urea], the Ki is 5.32 nM. Consider `CC(C)NC(=O)Nc1ccc2c(c1)COC(Nc1cccc3c1OC(C)(C)C3)=N2` [Example 139, 1-[2-(2,2-Dimethyl-2,3-dihydro-benzofuran-7-ylamino)-4H-benzo[d][1,3]oxazin-6-yl]-isopropyl-urea], for which the Ki worked out at 241 nM. `COCC1CN(CC(=O)Nc2ccc3c(c2)COC(NC2CCc4cccc(OC)c42)=N3)CCN1C` (stereo not drawn) [Example 146, N-[2-(7-Methoxy-indan-1-ylamino)-4H-benzo[d][1,3]oxazin-6-yl]-2-(3-methoxymethyl-4-methyl-piperazin-1-yl)-acetamide]: the Ki was 3.7 nM. Turning to `COCC1CN(CC(=O)Nc2ccc3c(c2)COC(N[C@@H]2CCc4ccccc42)=N3)CCN1C` (stereo partly drawn) [Example 147, N-[2-((R)-Indan-1-ylamino)-4H-benzo[d][1,3]oxazin-6-yl]-2-(3-methoxymethyl-4-methyl-piperazin-1-yl)-acetamide], the Ki was 3.55 nM. Next, `O=S(=O)(Nc1ccc2c(c1)COC(Nc1cccc(C3CC3)c1)=N2)C1CC1` [Example 149, Cyclopropanesulfonic acid [2-(3-cyclopropyl-phenylamino)-4H-benzo[d][1,3]oxazin-6-yl]-amide]: 138 nM. Consider `O=S(=O)(Nc1ccc2c(c1)COC(Nc1cccc(C3CC3)c1)=N2)c1ccccc1` [Example 150, N-[2-(3-Cyclopropyl-phenylamino)-4H-benzo[d][1,3]oxazin-6-yl]-benzenesulfonamide], for which the Ki stood at 299 nM. Regarding `CC(C)NC(=O)Nc1ccc2c(c1)COC(Nc1cccc(C3CC3)c1)=N2` [Example 151, 1-[2-(3-Cyclopropyl-phenylamino)-4H-benzo[d][1,3]oxazin-6-yl]-3-isopropyl-urea], the Ki came to 114 nM. Next, `c1ccc2c(c1)CC[C@H]2NC1=Nc2ccc(C3CC3)cc2CO1` [Example 152, (6-Cyclopropyl-4H-benzo[d][1,3]oxazin-2-yl)-(R)-indan-1-yl-amine]: 27.3 nM; `Nc1ccc2c(c1)COC(NC1CCCCCCC1)=N2` [Example 153, N^2-Cyclooctyl-4H-benzo[d][1,3]oxazine-2,6-diamine]: 11.9 nM. With `CC(C)NC(=O)Nc1ccc2c(c1)COC(NC1CCCCCC1)=N2` [Example 154, 1-(2-Cycloheptylamino-4H-benzo[d][1,3]oxazin-6-yl)-3-isopropyl-urea], the inhibition constant Ki turned out to be 1.86 nM.

Regarding `O=C(Nc1ccc2c(c1)COC(NC1CCCCCCC1)=N2)C1CC1` [Example 155, Cyclopropanecarboxylic acid (2-cyclooctylamino-4H-benzo[d][1,3]oxazin-6-yl)-amide], the Ki was found to be 1.3 nM.
